The nature of data set [1]: method code SF-AS, from DOI: 10.1002/ardp.19843170314.
A short description of data set [2]: method code SF-RC, from DOI: 10.1002/jlcr.1863. The conditions noted are these: pH 7.4.
Data set [3] can be described thus: method code SF-HPLC, from DOI: 10.1021/jm030477w, PMID: 15084119. The conditions noted are these: pH 7.4.
Data set [4] in a line: method code SF-AS, from DOI: 10.5012/bkcs.2007.28.7.1183.
Experiment in data set [5]: not given
This is another data set of the same source.

Data set [6] in a line: method code SF-AS, from PMID: 7849133. The conditions noted are these: pH 3.6.
A short description of data set [7]: method code SF-AS, from DOI: 10.1016/j.ejmech.2007.07.011, PMID: 17869385. The settings on record: pH 7.4.
The nature of data set [8]: method code SF-EIA, from DOI: 10.1016/j.carres.2004.12.038, PMID: 15797137.
Experiment in data set [9]: not given
The source holds these as a separate data set.

A short description of data set [10]: method code SF, from DOI: 10.1021/jm00151a007, PMID: 3941412. The conditions noted are these: pH 9.0.
The nature of data set [11]: method code SF-HPLC, from DOI: 10.1016/0378-5173(95)00102-o.
Data set [12] can be described thus: method code SF-AS, from DOI: 10.1021/jm991080o, PMID: 10579844. The settings on record: pH 7.4.
The nature of data set [13]: from Tomlinson, E.; Davis, S.; Parr, G.; James, M.; Farraj, N.; Kinkel, J.; Gaisser, D.; Wynne, H. (1986). The filter-probe extractor: a versatile tool for the rapid determination of solute oil/water ….
Experiment in data set [14]: not given
This is another data set of the same source.

The nature of data set [15]: method code RP-HPLC, from DOI: 10.1016/0143-7208(91)85018-4. The settings on record: pH 7.0.
The nature of data set [16]: method code SF-AS, from DOI: 10.1016/0378-5173(88)90083-x. The conditions noted are these: pH 7.3.
Data set [17] can be described thus: method code SF, from DOI: 10.1016/0223-5234(94)90060-4. The settings on record: pH 7.4.
Data set [18] can be described thus: method code SF-AS, from DOI: 10.1016/0223-5234(94)90063-9. The settings on record: pH 2.0.
The nature of data set [19]: method code SF-RC, from DOI: 10.1016/s0969-8051(98)00005-5, PMID: 9720665. The conditions noted are these: pH 7.0.
Data set [20] is described as follows: method code SF, from DOI: 10.1021/jm950585l, PMID: 8632436.
Experiment in data set [21]: not given
The source holds these as a separate data set.

Experiment in data set [22]: not given
This is another data set of the same source.

Data set [23] in a line: method code SF-RC, from PMID: 1811623.
Data set [24] can be described thus: from Afshan, A.; Jehangir, M.; Amin, W.; Mujahid, A. (2000). Study of various esters of ethylcysteine acid dimer as brain perfusion imaging agents and formulation into single vial kit for labelling with …. The conditions noted are these: pH 7.5.
For data set [25] the following is noted: pH 9.2.
A short description of data set [26]: method code SF, from DOI: 10.1021/jm0498699.s001, PMID: 15163209.
Data set [27] can be described thus: method code SF-AS, from PMID: 11446164. The conditions noted are these: pH 5.9.
Data set [28] can be described thus: method code SF-AS, from DOI: 10.1002/jps.2600620542, PMID: 4705706.
Data set [29] is described as follows: method code SF-HPLC, from DOI: 10.1111/j.1747-0285.2011.01193.x, PMID: 21777394. The conditions noted are these: pH 7.4.
Data set [30] in a line: method code SF, from DOI: 10.1016/0048-3575(74)90109-6.
The nature of data set [31]: method code SF, from DOI: 10.1021/jm00114a024, PMID: 1920362.
The nature of data set [32]: method code SF-RC, from DOI: 10.1002/ps.2780240105. The settings on record: pH 7.0.
Data set [33] in a line: method code SF-RC, from DOI: 10.1021/jf60204a016.
Experiment in data set [34]: not given
The source holds these as a separate data set.

Experiment in data set [35]: not given
The source holds these as a separate data set.

Experiment in data set [36]: not given
This is another data set of the same source.

Data set [37] can be described thus: method code SF-AS, from PMID: 578762. The settings on record: pH 7.4.
A short description of data set [38]: method code SF-AS, from DOI: 10.1016/0048-3575(87)90152-0.
Data set [39] can be described thus: method code SF, from DOI: 10.1021/jm00019a019, PMID: 7562920. The settings on record: pH 10.0.
The nature of data set [40]: method code SF-RC, from DOI: 10.1021/jm901850k, PMID: 20411954. The conditions noted are these: pH 7.4.
Data set [41] in a line: method code SF, from DOI: 10.3109/00498258909043190, PMID: 2618089. The conditions noted are these: pH 10.8.
Experiment in data set [42]: not given
This is another data set of the same source.

A short description of data set [43]: method code SF-RC, from DOI: 10.1021/jm0607193, PMID: 17004725.
A short description of data set [44]: method code SF-AS, from PMID: 1042. The conditions noted are these: pH 7.4.
Data set [45] in a line: method code SF-AS, from PMID: 19779. The conditions noted are these: pH 2.0.

We go through 46 compounds from the SangsterLogP compilation.

What is called logP is a log measure of how a compound divides between an organic and an aqueous phase. Lower therefore signals lower lipophilicity. `O=C(O)Cc1ccccc1Oc1ccc(Cl)cc1Cl` displayed a logP in [1] of 4.8.
For orientation: logD means lipophilicity at a set pH, counting ionised and neutral species. `O=c1[nH]c(=O)n(C2CC(O)C(CO)O2)cc1-c1cn(CCF)nn1` (stereo unspecified): in data set [2], the logD was -1.33.
`CCC(N)C(=O)Nc1c(C)cccc1C` (stereo unspecified): the logP was determined as 0.84.
Turning to `Nc1ccc(-c2cn3cc(I)ccc3n2)cc1`, in [3], the logD came out at 3.58.
For `Cc1cc(C)nc(NS(=O)(=O)c2ccc(N)cc2)n1`, the logP in data set [4] was determined as 0.21.
Consider `CC1c2nc3ccccc3c(=O)n2CCN1C` (stereo unspecified), for which, in data set [5], the logP stood at 0.64.
The compound `O=C(O)c1cccnc1Nc1cccc(C(F)(F)F)c1` registered a logD in [6] of 2.95.
Regarding `Cc1c(O)c(=O)ccn1CCCn1ccnc1`, in data set [7], the logD is -0.46.
With `OC[C@H]1O[C@H](O[C@H]2O[C@H](CO)[C@@H](O)[C@H](O)[C@H]2O)[C@H](O)[C@@H](O)[C@@H]1O`, the logP in data set [8] was -3.76.
The compound `CN1C(=O)NC(=O)C(C)(C2=CCCCC2)C1=O` (stereo unspecified) showed a logP in data set [9] of 1.71.
Consider `CNc1c(NCCSCc2nc[nH]c2C)c(=O)c1=O`, for which the logD in [10] is -0.08.
Consider `CCCCCCOC(=O)c1cccnc1`, for which the logP in data set [11] stood at 3.51.
The compound `CCc1c(O)c(=O)ccn1CCOC(=O)C(C)C` gave a logD in data set [12] of 0.7.
`CNC(=O)[C@H](Cc1ccccc1)NC(C)=O` came in with a log partition coefficient (logP) in data set [13] of 0.5.
In data set [14], `CCN(CC)CCOC(=O)c1ccc(N)cc1` yielded a logP of 2.1.
For `Nc1ccc(N)c2c1C(=O)c1ccccc1C2=O`, the logD in data set [15] turned out to be 3.
With `O=C(c1ccc(Cl)cc1)c1cc(F)ccc1O`, the pH-dependent lipophilicity (logD) in data set [16] turned out to be 4.05.
In the case of `CC(=O)Nc1ccn(C2CSC(COC(C)=O)O2)c(=O)n1` (stereo unspecified), the logD in [17] is 0.88.
As for `Cn1c(CC(=O)O)cnc1C(=O)c1ccccc1`, the logD in [18] was determined as 0.22.
`OC1OC2COC(c3ccc(I)cc3)OC2C(O)C1O` (stereo unspecified) gave a logD in data set [19] of 1.9.
In data set [20], `Cc1cc2c(ccc3c(C)cc(=O)[nH]c32)o1` had a logP of 2.21.
The compound `Ic1ccc2nc(-c3ccc(-c4nnn[nH]4)cc3)cn2c1` had a logP in data set [21] of 1.73.
Compound `O=C(O)C1(O)c2ccccc2-c2ccc(Cl)cc21` (stereo unspecified) came in with a logP in data set [22] of 3.22.
`Cc1c(C)c2ccc3occc3c2oc1=O` gave a logP in data set [23] of 2.9.
The compound `CCOC(=O)[C@H](CS)NCCN[C@@H](CS)C(=O)OCC` registered a logD in data set [24] of 1.4.
Turning to `CC(C)CNCNC(=O)c1ccccc1`, in [25], the logD amounted to 1.73.
`COC(=O)CCNC(=O)c1cc(N2CC2)c([N+](=O)[O-])cc1[N+](=O)[O-]` returned a log partition coefficient (logP) in data set [26] of 0.56.
Compound `O=C1N=C(N2CCOCC2)CN1c1ccc(Cl)cc1` showed a logD in [27] of 1.32.
`COc1ccc(C(=O)c2ccncc2)cc1` displayed a logP in [28] of 1.94.
For the compound `C[C@@H](OC(=O)N(N(CCCl)S(C)(=O)=O)S(C)(=O)=O)c1ccc([N+](=O)[O-])cc1`, the logD in data set [29] is 2.15.
On to `Fc1ccc(C(c2ccc(F)cc2)C(Cl)(Cl)Cl)cc1`, for which the logP in [30] stood at 4.62.
In data set [31], `CN(CCN)S(=O)(=O)c1ccc(C(C)(C)[N+](=O)[O-])c([N+](=O)[O-])c1` displayed a logP of 0.62.
Compound `CCCCc1c(C)nc(NCC)nc1OS(=O)(=O)N(C)C` came in with a logD in [32] of 2.7.
The compound `CC(C)c1onc2nc(C(C)(C)C)[nH]c(=O)c12` yielded a logP in [33] of 2.34.
With `CCC(O)(CCC(N)=O)c1ccccc1` (stereo unspecified), the logP in [34] came to 2.11.
`OC(Cn1cncn1)(Cn1cncn1)c1ccc(Cl)cc1Cl` returned a logP in data set [35] of 1.1.
With `CCCCCOC(=O)c1ccc(O)cc1`, the logP in data set [36] was 3.65.
In the case of `CCOC(=O)/C=C1\SC(N2CCCC2)C(=O)N1C` (stereo unspecified), the logD in data set [37] came out at 2.
Regarding `CCC(C(=O)Oc1ccccc1)C(C)C` (stereo unspecified), in data set [38], the lipophilicity (logP) came to 4.2.
For the compound `CNc1ncnc2c1ncn2Cc1ccccc1F`, in [39], the logD is 1.86.
For the compound `CON=C1C=C(C#Cc2csc(CF)n2)CCC1`, the logD in [40] stood at 1.6.
In the case of `O=C(Cn1c(=O)sc2ccc(Cl)cc21)N1CCNCC1`, the pH-dependent lipophilicity (logD) in data set [41] worked out at 1.35.
`CCn1cc(C(=O)O)c(=O)c2cc3nc[nH]c3cc21` showed a log partition coefficient (logP) in [42] of 0.41.
In data set [43], `COc1cc(C=CC(=O)C=C(C)O)cc(I)c1O` returned a logP of 1.35.
Regarding `CCCCOc1ccc(CC(=O)NO)cc1`, the logD in data set [44] stood at 2.08.
`CCC1(c2ccccc2)C(=O)NC(=O)N(C)C1=O` (stereo unspecified) displayed a logD in [45] of 1.84.
